Data from US8536132B2, “Lymphatic zip codes in tumors and pre-malignant lesions” (Sanford-Burnham Medical Research Institute, priority 2006, dated 2013).
Entries after “also recorded” stand apart in the source; their conditions may differ. Marks after values point to notes of the source that are not given here.

Assays:
[1] = test system: pre-malignant TRAMP lesions
Method: (§1) Custom immunization to produce a rabbit antiserum against mouse Prox-1 was performed by Proteintech Inc. New Zealand White rabbits were immunized with a fusion protein of GST-C-terminal fragment of Prox-1 protein. The antibody was affinity purified on the fusion protein and absorbed with GST. […] Antibodies against the lymphatic markers anti-LYVE-1 (Laakkonen et al., 2002) and anti-podoplanin (kindly provided by T. Petrova and K. Alitalo), rat monoclonal anti-mouse CD31 (BD Pharmingen), rat anti-mouse MECA-32 (Pharmingen), rabbit polyclonal anti-T7 phage, and rat anti-mouse VEGFR3 were used for immunohistochemical staining of frozen tissue sections as described (Joyce et al., 2003; Laakkonen et al., 2002). The corresponding secondary antibodies were added and incubated for 1 hr at room temperature: AlexaFluor-488 goat anti-rat or rabbit IgG (1:1000; Molecular Probes, Eugene, Oreg.), AlexaFluor-594 goat anti-rat or rabbit IgG (1:1000, Molecular Probes), AlexaFluor-594 donkey anti-mouse or goat IgG (1:1000, Molecular Probes), and AlexaFluor-488 donkey anti-mouse or goat IgG (1:1000; Molecular Probes), respectively. The slides were washed three times with PBS and mounted in Vectashield Mounting Medium with DAPI (Vector Laboratories, Burlingame, Calif.). Blood vessels were also visualized by intravenously injecting Lycopersicon esculentum (tomato) lectin conjugated to fluorescein (100 μg of lectin in 200 μl of PBS; Vector Laboratories). […] The injected peptides were allowed to circulate 30 min to 2 hrs, and the mice were perfused with 4% paraformaldehyde through the left ventricle of heart. Tissues were dissected and frozen in OCT embedding medium (Tissue-Tek, Elkhart, Ind.). The frozen sections were prepared for immunohistological analysis.

[2] = test system: TRAMP prostate tumors; conditions: for fluorescent peptide in TRAMP prostate tumors (in words): fluorescein-conjugated peptide i.v.
Method: as §1

[3] = test system: TRAMP PIN lesions; assay: In vivo phage homing to TRAMP pre-malignant (PIN) lesions; parameters: species or system mouse; conditions: for phage homing to TRAMP pre-malignant lesions (in words): i.v. injected phage
Method: (§2) The following cell lines were maintained in DMEM supplemented with 10% FCS: C8161 human melanoma, MDA-MB-435 human breast cancer, KRIB human osteosarcoma, and human prostate cancer cells PPC1, DU145. LNCaP human prostate cancer cell line was grown in RPMI 1640 medium with 10 mM HEPES, 1 mM sodium pyruvate and 1.5 g/L sodium bicarbonate supplemented with 10% FCS. M12 human prostate cancer cell line was cultured in RPMI 1640 with 5 μg/ml insulin-transferrin-sodium selenite (ITS), 2.5 μg/ml fungizone, 50 μg/ml gentamycin, 0.2 μM dexamethasone, 10 ng/ml epidermal growth factor (EGF), and 5% FCS (Bae et al., 1998). To produce tumors, nude BALB/c and C56BL/6 mice were subcutaneously (C8161, KRIB, and PPC1) or orthotopically ([…], PPC1, DU145, M12, and LNCaP) injected with 1×10^6 tumor cells. Transgenic mouse tumor models included TRAMP prostate cancer, MMTV-PyMT breast cancer, and K14-HPV16 cervical cancer. To initiate cervical carcinogenesis, female K14-HPV16 mice (Arbeit et al., 1994) were treated with 17β-estradiol (E2; (Arbeit et al., 1996; Giraudo et al., 2004). Briefly, one-month-old virgin female transgenic (heterozygous K14-HPV16, 1203#1) and nontransgenic (FVB/n) mice were anesthetized with isoflurane, and continuous release pellets that deliver E2 at doses of 0.05 mg over 60 days (Innovative Research of America, Sarasota, Fla., USA) were implanted subcutaneously in the dorsal back skin. Subsequent pellets were implanted at 3 and 5 months of age for a total of 6 months of hormone treatment. K14-HPV16 mice were maintained in the FVB/n background (FVB/n; The Jackson Laboratory). The mice were maintained in accordance with the University of California, San Francisco (UCSF) institutional guidelines governing the care of laboratory mice. The animal experimentation was approved by Animal Research Committees at UCSF or The Burnham Institute.
(§3) In vivo homing specificity of phage was tested as described (Hoffman, 2004). Briefly, mice bearing tumors were anesthetized and intravenously injected with 5×10^9 pfu of phage. After 7 min, the mice were perfused through the heart with PBS containing 0.5% BSA. The tumor and control organs were dissected from each mouse and the phage were rescued and tittered. For histology analysis, the mice were perfused with 4% PFA 30 min after the injection of phage. Tissues were embedded in Tissue-Tek O.C.T. and 5 μm sections were prepared for phage immunostaining.

[4] = test system: normal tissues; assay: In vivo phage homing to normal and control tissues; parameters: species or system mouse; conditions: for phage in other tissues versus nonrecombinant control phage: lymph nodes, kidneys, lungs, skin, gut
Method: as §3

[5] = test system: MMTV-PyMT breast tumors; assay: In vivo phage homing to MMTV-PyMT breast tumors; parameters: species or system mouse; conditions: for phage homing to MMTV-PyMT breast tumors (in words): i.v. injected phage; for Fold over control phage / Specific Homing: phage homing in vivo, MMTV-PyMT breast tumors
Method: as §2, §3

[6] = test system: TRAMP prostate tumors; assay: In vivo phage homing to TRAMP prostate tumors; parameters: species or system mouse; conditions: for Fold over control phage / Specific Homing: phage homing in vivo, TRAMP prostate tumors; for phage homing to TRAMP prostate tumors (in words): i.v. injected phage
Method: as §2, §3

[7] = test system: human prostate tumor sections; assay: Phage overlay of tissue sections from human prostate cancer; conditions: two primary human prostate cancers
Method: The frozen sections of human prostate tumor specimens were obtained from Dr. Daniel Mercola (Sidney Kimmel Cancer Center, La Jolla, Calif.). The sections (5 μm) were preincubated with blocking buffer (5% normal goat serum and 0.5% BSA in 1×PBS) for 1 hr at room temperature, washed three times with diluted blocking buffer (1:10), and phage (3×10^9 pfu) were incubated on the section for 4 hrs. After 3 washes, rabbit anti-phage antibody (10 μg/ml) was added and the phage incubated for 2 hrs. The slides were washed and incubated with AlexaFluor-488 goat anti-rabbit IgG for 1 hr. After further washes, the slides were mounted with Vectashield (VECTOR, Burlingame, Calif.).

[8] = test system: K14-HPV16/E2 cervical tumors; assay: In vivo phage homing to K14-HPV16/E2 cervical tumors; parameters: species or system mouse; conditions: for phage homing to K14-HPV16/E2 cervical tumors (in words): i.v. injected phage; for Fold over control phage / Specific Homing: phage homing in vivo, K14-HPV16/E2 cervical cancer / cervical tumors
Method: as §2, §3

[9] = test system: C8161 xenografts; assay: In vivo phage homing to C8161 xenograft tumors; parameters: species or system mouse
Method: as §2, §3

[10] = test system: cultured PPC1 cells; assay: REA phage binding to cultured PPC1 cells; assay type: cell-based, human; conditions: listed as REA-phage
[11] = test system: K14-HPV16/E2 cervical lesions; assay: Distribution of fluorescent peptides in K14-HPV16/E2 mice with cervical lesions; assay type: in vivo, mouse; conditions: labeled peptide i.v.
Method: The frozen sections were prepared for immunohistological analysis.

[12] = test system: PPC1 tumor-derived cell suspensions; assay: REA phage binding to PPC1 tumor-derived cell suspensions; assay type: cell-based; conditions: listed as REA-phage
[13] = phage and fluorescein-labeled peptide, TRAMP pre-malignant lesions
[14] = phage homing in vivo, TRAMP PIN lesions
[15] = phage and fluorescein-labeled peptide, TRAMP tumors
[16] = phage homing in vivo, C8161 (s.c.) xenografts

| Sequence | fluorescent peptide in TRAMP prostate tumors (in words) [2] | phage in other tissues versus nonrecombinant control phage [4] | phage homing to MMTV-PyMT breast tumors (in words) [5] | Fold over control phage [5] | Specific Homing [5] | Fold over control phage [6] | Specific Homing [6] | phage binding to human prostate tumor sections (in words) [7] | phage homing to K14-HPV16/E2 cervical tumors (in words) [8] | Fold over control phage [8] | Specific Homing [8] | also measured |
| --- | --- | --- | --- | --- | --- | --- | --- | --- | --- | --- | --- | --- |
| CAGRRSAYC [homing peptide for pre-malignant TRAMP prostate lesions] | little or no peptide was seen | Neither phage was found in other tissues | little homing of the phage | 4 fold | No | 4 fold | No | did not bind | little homing of the phage | 4 fold | No | co-localization with lymphatic markers podoplanin, VEGFR3, LYVE-1, Prox-1 [1, 13]: substantial co-localization; localization versus blood vessel markers CD31 and MECA-32 [1, 13]: entirely distinct; phage homing to TRAMP pre-malignant lesions (in words) ([3]; listed as AGR phage): selectively home to pre-malignant lesions; also recorded: homed significantly more; also recorded: homes only to pre-malignant lesions; also recorded: marked preference; enrichment to pre-malignant TRAMP lesions relative to nonrecombinant phage ([3]; phage clones tested in vivo individually): 24 fold; Fold over control phage [3, 14]: 18 fold; Specific Homing [3, 14]: Yes |
| CREAGRKAC [homing peptide for prostate tumor lymphatics] | accumulated in prostate tumors | Neither phage was found in other tissues | negative for REA binding | 8^‡ fold | Yes | 46 fold | Yes | recognizes the lymphatics of human prostate tumors | slightly positive | 7^‡ fold | Yes | fluorescent peptide in TRAMP pre-malignant lesions (in words) ([1]; fluorescein-conjugated peptide i.v.): negative; overlap with podoplanin-positive lymphatic vessels ([2]; fluorescein-conjugated peptide, prostate tumors): 90%; co-localization with lymphatic markers podoplanin, VEGFR3, LYVE-1, Prox-1 [2, 15]: substantial co-localization; localization versus blood vessel markers CD31 and MECA-32 [2, 15]: entirely distinct; phage homing to TRAMP pre-malignant lesions (in words) [3]: not to pre-malignant lesions or normal prostate; phage homing to normal prostate ([4]; tumor-free littermates of TRAMP mice): not to pre-malignant lesions or normal prostate; phage homing to C8161 tumors (in words) ([9]; i.v. injected phage, C8161 xenograft mice): negative for REA binding; Fold over control phage [9, 16]: 5 fold; Specific Homing [9, 16]: No; phage binding to cultured PPC1 cells (in words) [10]: not to cultured PPC1 cells; also recorded: did not bind; fluorescent peptide in K14-HPV16/E2 cervical lesions/tumors (in words) [11]: slightly positive; enrichment in TRAMP tumors relative to nonrecombinant phage ([6]; i.v. injected phage clone): 50 fold; phage homing to TRAMP prostate tumors (in words) ([6]; listed as REA phage): homes to tumors; phage homing to TRAMP prostate tumors (in words) ([6]; listed as REA-phage): accumulate in TRAMP tumors; also recorded: Significant phage homing; phage binding to PPC1 tumor-derived cell suspensions (in words) [12]: binds to cell suspensions derived from PPC1 tumors; also recorded: strongly bound |
